Measurements from ChEMBL document CHEMBL4406885, “Effect of self-assembly on antimicrobial activity of double-chain short cationic lipopeptides” (Bioorg Med Chem, 2019).
Values after ≈ are worked out from the molar mass of the structure shown. Active and inactive are the calls of the source. No cut-off for these calls is given here. Where a SMILES comes first, the peptide text is derived from it. [ ]: non-standard residue; d: D form. The star is where a group is joined. ξ: configuration not given here. Palmitoyl = CCCCCCCCCCCCCCCC(=O)*; Myristoyl = CCCCCCCCCCCCCC(=O)*; Lauroyl = CCCCCCCCCCCC(=O)*; Decanoyl = CCCCCCCCCC(=O)*; ξDab = NCCC(N)C(=O)O; ξDap = NCC(N)C(=O)O

Assays:
[1] = tested on: Lipid bilayer; assay: Binding affinity to DPPG large unilamellar vesicles at 323 kelvin by ITC method
[2] = tested on: Lipid bilayer; assay: Binding affinity to POPG large unilamellar vesicle at 298 kelvin by ITC method
[3] = tested on: Lipid bilayer; assay: Binding affinity to DPPG large unilamellar vesicles at 298 kelvin by ITC method
[4] = tested on: Lipid bilayer; assay: Binding affinity to POPC large unilamellar vesicle at 0.2 mM by ITC method
[5] = tested on: Staphylococcus aureus; assay: Antibacterial activity against Staphylococcus aureus ATCC 25923 assessed as growth inhibition measured after 18 hrs by CLSI based method; format: functional; details: ATCC 25923, 18 h
[6] = tested on: Staphylococcus epidermidis; assay: Antibacterial activity against Staphylococcus epidermidis PCM 2118 assessed as growth inhibition measured after 18 hrs by CLSI based method; format: functional; details: PCM 2118, 18 h
[7] = tested on: Escherichia coli; assay: Antibacterial activity against Escherichia coli ATCC 25922 assessed as growth inhibition measured after 18 hrs by CLSI based method; format: functional; details: ATCC 25922, 18 h
[8] = tested on: Candida albicans; assay: Antifungal activity against Candida albicans ATCC 10231 assessed as growth inhibition measured after 48 hrs by CLSI based method; format: functional; details: ATCC 10231, 48 h
[9] = tested on: HaCaT; assay: Cytotoxicity against human HaCaT cells assessed as growth inhibition measured after 24 hrs by MTT assay; format: cell-based
[10] = tested on: Pseudomonas aeruginosa; assay: Antibacterial activity against Pseudomonas aeruginosa ATCC 9027 assessed as growth inhibition measured after 18 hrs by CLSI based method; format: functional; details: ATCC 9027, 18 h
[11] = Surfactant-like property of compound at CMC; format: physicochemical
[12] = Binding affinity to DPPG lipid assessed as change in melting temperature at 10:1 molar ratio of lipid:lipopeptide by FTIR analysis
[13] = Critical micelle concentration of compound; format: physicochemical
[14] = Critical micelle concentration of compound by ITC method; format: physicochemical
[15] = Hemolytic activity in human RBC induction of hemolysis at 128 ug/ml at MIC after 60 mins by spectrophotometric method relative to control; format: cell-based, Erythrocyte; details: human red blood cells (erythrocytes), read-out: Activity

Structure (SMILES) | pK [1] | pK [2] | pK [3] | Activity [4] | MIC [5] [µg/mL] | MIC [6] [µg/mL] | MIC [7] [µg/mL] | MIC [8] [µg/mL] | MIC [10] [µg/mL] | gammaCMC [11] [mN/meter] | ΔTm [12] [°C] | CMC [13] [mM] | CMC [14] [mM] | IC50 [9] [µg/mL] | hemolysis at 1 h, 128 ug/ml [15] [%]
CCCCCCCCCC(=O)NCC(NC(=O)CCCCCCCCC)C(=O)O (configuration not stated) | 4.5 | 6.83 to 50.7 | 6.59 to 7.4 | inactive | – | – | – | – | – | – | – | – | – | – | –
CCCCCCCCCC(=O)NCCC(NC(=O)CCCCCCCCC)C(=O)O (configuration not stated) | 5.06 | – | 5.76 to 7.37 | inactive | – | – | – | – | – | – | – | – | – | – | –
CCCCCCCCCCCC(=O)NCC(NC(=O)CCCCCCCCCCC)C(=O)O (configuration not stated) | 5.37 | 6.34 | 7.18 | inactive | – | – | – | – | – | – | – | – | – | – | –
CCCCCCCCCCCC(=O)NCCC(NC(=O)CCCCCCCCCCC)C(=O)O (configuration not stated) | 4.52 | 4.1 | 5.14 to 7.38 | inactive | – | – | – | – | – | – | – | – | – | – | –
CCCCCCCCCCCCCCCC(=O)NCC(NC(=O)CCCCCCCCCCCCCCC)C(=O)O (configuration not stated) | inactive | – | 4.26 to 6.99 | inactive | – | – | – | – | – | – | – | – | – | – | –
CCCCCCCCCC(=O)NCCC(NC(=O)CCCCCCCCC)C(=O)N[C@@H](CCCCN)C(=O)N[C@@H](CCCCN)C(=O)N[C@@H](CCCCN)C(N)=O (some centres not stated) (Decanoyl-[ξDab](Decanoyl)KKK-NH2) | – | – | – | inactive | 8 (≈ 9.87 µM) | 4 (≈ 4.94 µM) | 16 (≈ 19.7 µM) | 16 (≈ 19.7 µM) | 8 (≈ 9.87 µM) | 41.5 | 2.5 to 3 | 3.16 | – | 1.16 (≈ 1.43 µM) | –
CCCCCCCCCCCCCC(=O)NCC(NC(=O)CCCCCCCCCCCCC)C(=O)N[C@@H](CCCCN)C(=O)N[C@@H](CCCCN)C(=O)N[C@@H](CCCCN)C(N)=O (some centres not stated) (Myristoyl-[ξDap](Myristoyl)KKK-NH2) | – | – | – | inactive | > 512 | 128 (≈ 141 µM) | > 512 | > 512 | > 512 | 46.1 | – | 0.35 | 0.35 | – | –
CCCCCCCCCCCCCCCC(=O)NCCCC[C@H](NC(=O)CCCCCCCCCCCCCCC)C(=O)N[C@@H](CCCCN)C(=O)N[C@@H](CCCCN)C(=O)N[C@@H](CCCCN)C(N)=O (Palmitoyl-K(Palmitoyl)KKK-NH2) | – | – | – | inactive | > 512 | > 512 | > 512 | > 512 | > 512 | – | – | – | – | – | –

The next lines start with results.

pK [1] | pK [2] | pK [3] | Activity [4] | MIC [5] [µg/mL] | MIC [6] [µg/mL] | MIC [7] [µg/mL] | MIC [8] [µg/mL] | MIC [10] [µg/mL] | gammaCMC [11] [mN/meter] | ΔTm [12] [°C] | CMC [13] [mM] | CMC [14] [mM] | Structure (SMILES) | IC50 [9] [µg/mL] | hemolysis at 1 h, 128 ug/ml [15] [%]
– | – | – | inactive | 64 (≈ 76.4 µM) | 2 (≈ 2.39 µM) | 16 (≈ 19.1 µM) | 8 (≈ 9.54 µM) | 8 (≈ 9.54 µM) | – | – | – | – | CCCCCCCCCC(=O)NCCCC[C@H](NC(=O)CCCCCCCCC)C(=O)N[C@@H](CCCCN)C(=O)N[C@@H](CCCCN)C(=O)N[C@@H](CCCCN)C(N)=O (Decanoyl-K(Decanoyl)KKK-NH2) | 18.8 (≈ 22.4 µM) | –
– | – | – | inactive | 2 (≈ 2.51 µM) | 4 (≈ 5.02 µM) | 8 (≈ 10 µM) | 16 (≈ 20.1 µM) | 4 (≈ 5.02 µM) | 42.5 | 2.5 to 3 | 3.24 | – | CCCCCCCCCC(=O)NCC(NC(=O)CCCCCCCCC)C(=O)N[C@@H](CCCCN)C(=O)N[C@@H](CCCCN)C(=O)N[C@@H](CCCCN)C(N)=O (some centres not stated) (Decanoyl-[ξDap](Decanoyl)KKK-NH2) | 75 (≈ 94.2 µM) | –
– | – | – | inactive | 64 (≈ 71.6 µM) | 16 (≈ 17.9 µM) | 128 (≈ 143 µM) | 8 (≈ 8.95 µM) | 256 (≈ 286 µM) | – | – | – | – | CCCCCCCCCCCC(=O)NCCCC[C@H](NC(=O)CCCCCCCCCCC)C(=O)N[C@@H](CCCCN)C(=O)N[C@@H](CCCCN)C(=O)N[C@@H](CCCCN)C(N)=O (Lauroyl-K(Lauroyl)KKK-NH2) | 31.1 (≈ 34.8 µM) | –
– | – | – | inactive | 64 (≈ 73.9 µM) | 8 (≈ 9.23 µM) | 64 (≈ 73.9 µM) | 16 (≈ 18.5 µM) | 64 (≈ 73.9 µM) | 40 | – | 1.25 | 1.34 | CCCCCCCCCCCC(=O)NCCC(NC(=O)CCCCCCCCCCC)C(=O)N[C@@H](CCCCN)C(=O)N[C@@H](CCCCN)C(=O)N[C@@H](CCCCN)C(N)=O (some centres not stated) (Lauroyl-[ξDab](Lauroyl)KKK-NH2) | 30.7 (≈ 35.4 µM) | 13
– | – | – | inactive | 32 (≈ 37.5 µM) | 8 (≈ 9.39 µM) | 256 (≈ 300 µM) | 8 (≈ 9.39 µM) | 128 (≈ 150 µM) | 41.3 | – | 1.41 | 1.53 | CCCCCCCCCCCC(=O)NCC(NC(=O)CCCCCCCCCCC)C(=O)N[C@@H](CCCCN)C(=O)N[C@@H](CCCCN)C(=O)N[C@@H](CCCCN)C(N)=O (some centres not stated) (Lauroyl-[ξDap](Lauroyl)KKK-NH2) | 43.3 (≈ 50.8 µM) | 50
– | – | – | inactive | > 512 | 256 (≈ 269 µM) | > 512 | 512 (≈ 539 µM) | 512 (≈ 539 µM) | – | – | – | – | CCCCCCCCCCCCCC(=O)NCCCC[C@H](NC(=O)CCCCCCCCCCCCC)C(=O)N[C@@H](CCCCN)C(=O)N[C@@H](CCCCN)C(=O)N[C@@H](CCCCN)C(N)=O (Myristoyl-K(Myristoyl)KKK-NH2) | – | –
– | – | – | inactive | > 512 | > 512 | > 512 | > 512 | > 512 | 46.9 | – | 0.45 | 0.28 to 0.53 | CCCCCCCCCCCCCC(=O)NCCC(NC(=O)CCCCCCCCCCCCC)C(=O)N[C@@H](CCCCN)C(=O)N[C@@H](CCCCN)C(=O)N[C@@H](CCCCN)C(N)=O (some centres not stated) (Myristoyl-[ξDab](Myristoyl)KKK-NH2) | – | –
– | – | – | inactive | > 512 | 256 (≈ 262 µM) | > 512 | > 512 | > 512 | 41.5 | – | 0.32 | 0.06 to 0.22 | CCCCCCCCCCCCCCCC(=O)NCCC(NC(=O)CCCCCCCCCCCCCCC)C(=O)N[C@@H](CCCCN)C(=O)N[C@@H](CCCCN)C(=O)N[C@@H](CCCCN)C(N)=O (some centres not stated) (Palmitoyl-[ξDab](Palmitoyl)KKK-NH2) | – | –
– | – | – | inactive | > 512 | 512 (≈ 531 µM) | > 512 | > 512 | > 512 | 45.9 | – | 0.32 | 0.35 to 0.7 | CCCCCCCCCCCCCCCC(=O)NCC(NC(=O)CCCCCCCCCCCCCCC)C(=O)N[C@@H](CCCCN)C(=O)N[C@@H](CCCCN)C(=O)N[C@@H](CCCCN)C(N)=O (some centres not stated) (Palmitoyl-[ξDap](Palmitoyl)KKK-NH2) | – | –
